In brackets after ≈: the same amount, converted by molar mass.
Tests used:
Aurora kinase A = target: T1, Aurora kinase A (Homo sapiens, UniProt O14965)
T1 sequence (O14965 whole entry): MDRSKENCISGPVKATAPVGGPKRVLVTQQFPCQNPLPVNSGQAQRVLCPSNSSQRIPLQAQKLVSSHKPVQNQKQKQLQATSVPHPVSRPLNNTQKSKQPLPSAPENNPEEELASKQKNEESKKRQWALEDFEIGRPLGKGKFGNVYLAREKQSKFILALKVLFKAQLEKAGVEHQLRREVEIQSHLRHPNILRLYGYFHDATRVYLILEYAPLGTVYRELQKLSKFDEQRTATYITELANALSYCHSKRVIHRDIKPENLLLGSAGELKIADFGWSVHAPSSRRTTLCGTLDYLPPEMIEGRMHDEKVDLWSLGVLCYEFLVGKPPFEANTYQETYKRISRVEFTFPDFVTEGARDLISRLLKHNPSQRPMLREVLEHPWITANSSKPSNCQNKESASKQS
Description: Inhibition of human recombinant Aurora A expressed in baculovirus system

[1] = Metabolic stability in CD1 mouse liver microsomes assessed as compound remaining at 10 uM after 30 mins by LC-MS/MS analysis; format: ADME, Microsome; settings: read-out: Stability
HCT-116 [2] = experiment: Growth inhibition of human HCT116 cells after 72 hrs by MTT assay; format: functional; settings: HCT-116, 72 h
[3] = Aqueous solubility of the compound; format: physicochemical; settings: buffer
[4] = target: Platelet-derived growth factor receptor beta (Homo sapiens) (UniProt P09619); experiment: Inhibition of PDGFRbeta at 1 uM
[5] = target: High affinity nerve growth factor receptor (Homo sapiens) (UniProt P04629); experiment: Inhibition of NTRK1 at 1 uM
[6] = target: Angiopoietin-1 receptor (Homo sapiens) (UniProt Q02763); experiment: Inhibition of TEK at 1 uM
[7] = target: Hepatocyte growth factor receptor (Homo sapiens) (UniProt P08581); experiment: Inhibition of MET at 1 uM
hERG (KCNH2) = hERG (KCNH2) (Homo sapiens, UniProt Q12809); experiment: (§1) Inhibition of human ERG at 10 uM
[8] = target: Vascular endothelial growth factor receptor 2 (Homo sapiens) (UniProt P35968); experiment: Inhibition of KDR at 1 uM
[9] = target: Aurora kinase B (Homo sapiens) (UniProt Q96GD4); experiment: Inhibition of Aurora B at 1 uM
[10] = target: T2, Aurora kinase A (Homo sapiens) (UniProt O14965); experiment: Inhibition of Aurora A at 1 uM
T2 sequence (whole entry): T1 sequence (O14965 whole entry)

[11] = target: T3, Ephrin type-B receptor 4 (Homo sapiens) (UniProt P54760); experiment: Inhibition of EPHB4 at 1 uM
T3 sequence (whole entry): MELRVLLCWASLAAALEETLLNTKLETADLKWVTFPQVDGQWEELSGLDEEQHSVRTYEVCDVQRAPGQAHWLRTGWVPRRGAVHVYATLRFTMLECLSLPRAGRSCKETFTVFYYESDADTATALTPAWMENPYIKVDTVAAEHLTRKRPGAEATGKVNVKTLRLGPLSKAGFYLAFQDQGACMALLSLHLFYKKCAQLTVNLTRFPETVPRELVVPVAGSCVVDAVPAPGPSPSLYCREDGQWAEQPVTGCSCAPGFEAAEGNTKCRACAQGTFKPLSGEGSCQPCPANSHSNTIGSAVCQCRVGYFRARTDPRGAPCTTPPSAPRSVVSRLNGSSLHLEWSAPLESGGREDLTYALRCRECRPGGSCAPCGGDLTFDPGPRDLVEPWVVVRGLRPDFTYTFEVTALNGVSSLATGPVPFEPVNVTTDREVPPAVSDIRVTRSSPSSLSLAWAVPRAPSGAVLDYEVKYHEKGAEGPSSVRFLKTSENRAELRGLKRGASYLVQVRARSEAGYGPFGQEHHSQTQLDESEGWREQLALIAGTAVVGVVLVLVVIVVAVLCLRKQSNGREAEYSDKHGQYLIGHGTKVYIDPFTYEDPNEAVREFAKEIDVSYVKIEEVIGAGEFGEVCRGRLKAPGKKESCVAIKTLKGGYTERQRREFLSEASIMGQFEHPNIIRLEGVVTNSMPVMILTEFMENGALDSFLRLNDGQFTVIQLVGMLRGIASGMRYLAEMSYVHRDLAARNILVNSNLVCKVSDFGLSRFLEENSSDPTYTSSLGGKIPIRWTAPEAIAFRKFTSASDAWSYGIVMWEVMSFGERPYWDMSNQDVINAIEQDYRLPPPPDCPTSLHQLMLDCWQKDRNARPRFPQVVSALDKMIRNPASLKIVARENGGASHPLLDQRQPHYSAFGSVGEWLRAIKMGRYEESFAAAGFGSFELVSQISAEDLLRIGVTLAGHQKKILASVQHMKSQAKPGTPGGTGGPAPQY

[12] = target: Tyrosine-protein kinase Lck (Homo sapiens) (UniProt P06239); experiment: Inhibition of LCK at 1 uM
[13] = target: Vascular endothelial growth factor receptor 1 (Homo sapiens) (UniProt P17948); experiment: Inhibition of FLT1 at 1 uM
[14] = Oral bioavailability in BALB/c mouse at 5 mg/kg; format: ADME, organism-based; settings: in vivo
[15] = target: Voltage-gated inwardly rectifying potassium channel KCNH2 (Homo sapiens, UniProt Q12809); experiment: as §1; settings: 10 µM
[16] = Permeability by PAMPA assay; format: ADME; settings: read-out: permeability
HCT-116 [17] = experiment: Growth inhibition of human HCT116 cells at 10 uM after 72 hrs by MTT assay; format: functional; settings: HCT-116, 72 h, read-out: GI

Vascular endothelial growth factor receptor 2 (Homo sapiens), sequence (P35968 whole entry): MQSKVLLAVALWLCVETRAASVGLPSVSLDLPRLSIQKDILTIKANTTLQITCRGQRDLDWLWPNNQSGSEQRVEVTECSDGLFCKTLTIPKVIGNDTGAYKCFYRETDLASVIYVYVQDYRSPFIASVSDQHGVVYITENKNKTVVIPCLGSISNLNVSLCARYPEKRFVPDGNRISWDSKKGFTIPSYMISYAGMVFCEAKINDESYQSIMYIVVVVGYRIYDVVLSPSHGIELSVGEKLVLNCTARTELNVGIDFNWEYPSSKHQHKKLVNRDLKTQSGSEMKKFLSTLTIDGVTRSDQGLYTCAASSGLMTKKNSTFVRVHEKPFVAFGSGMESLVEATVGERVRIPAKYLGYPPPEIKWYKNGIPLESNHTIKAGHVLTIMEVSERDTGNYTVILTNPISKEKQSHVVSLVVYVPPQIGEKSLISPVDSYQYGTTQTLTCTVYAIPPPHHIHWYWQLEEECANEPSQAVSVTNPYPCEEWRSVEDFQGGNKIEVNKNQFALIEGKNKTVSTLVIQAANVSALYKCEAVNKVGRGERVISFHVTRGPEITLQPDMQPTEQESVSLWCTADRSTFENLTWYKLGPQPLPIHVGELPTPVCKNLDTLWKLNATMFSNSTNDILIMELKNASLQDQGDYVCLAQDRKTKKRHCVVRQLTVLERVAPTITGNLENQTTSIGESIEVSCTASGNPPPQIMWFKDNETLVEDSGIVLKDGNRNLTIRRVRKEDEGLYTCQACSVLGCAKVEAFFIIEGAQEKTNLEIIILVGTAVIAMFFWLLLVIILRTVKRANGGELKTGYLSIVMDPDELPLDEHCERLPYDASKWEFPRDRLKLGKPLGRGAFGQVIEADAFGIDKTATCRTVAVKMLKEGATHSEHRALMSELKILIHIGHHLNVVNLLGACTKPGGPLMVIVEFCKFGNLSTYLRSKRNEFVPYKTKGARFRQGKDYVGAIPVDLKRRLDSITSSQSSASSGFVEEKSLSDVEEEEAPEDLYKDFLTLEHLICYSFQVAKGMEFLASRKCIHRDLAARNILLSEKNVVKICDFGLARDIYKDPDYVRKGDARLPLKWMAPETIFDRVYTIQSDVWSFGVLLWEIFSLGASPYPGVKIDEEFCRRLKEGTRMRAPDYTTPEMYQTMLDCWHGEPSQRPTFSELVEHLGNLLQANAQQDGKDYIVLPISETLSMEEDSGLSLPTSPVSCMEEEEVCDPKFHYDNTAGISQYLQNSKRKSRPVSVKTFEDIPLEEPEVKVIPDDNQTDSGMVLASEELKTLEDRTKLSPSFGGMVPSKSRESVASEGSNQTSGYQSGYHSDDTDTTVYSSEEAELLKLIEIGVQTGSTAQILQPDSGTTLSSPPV
Platelet-derived growth factor receptor beta (Homo sapiens), sequence (P09619 whole entry): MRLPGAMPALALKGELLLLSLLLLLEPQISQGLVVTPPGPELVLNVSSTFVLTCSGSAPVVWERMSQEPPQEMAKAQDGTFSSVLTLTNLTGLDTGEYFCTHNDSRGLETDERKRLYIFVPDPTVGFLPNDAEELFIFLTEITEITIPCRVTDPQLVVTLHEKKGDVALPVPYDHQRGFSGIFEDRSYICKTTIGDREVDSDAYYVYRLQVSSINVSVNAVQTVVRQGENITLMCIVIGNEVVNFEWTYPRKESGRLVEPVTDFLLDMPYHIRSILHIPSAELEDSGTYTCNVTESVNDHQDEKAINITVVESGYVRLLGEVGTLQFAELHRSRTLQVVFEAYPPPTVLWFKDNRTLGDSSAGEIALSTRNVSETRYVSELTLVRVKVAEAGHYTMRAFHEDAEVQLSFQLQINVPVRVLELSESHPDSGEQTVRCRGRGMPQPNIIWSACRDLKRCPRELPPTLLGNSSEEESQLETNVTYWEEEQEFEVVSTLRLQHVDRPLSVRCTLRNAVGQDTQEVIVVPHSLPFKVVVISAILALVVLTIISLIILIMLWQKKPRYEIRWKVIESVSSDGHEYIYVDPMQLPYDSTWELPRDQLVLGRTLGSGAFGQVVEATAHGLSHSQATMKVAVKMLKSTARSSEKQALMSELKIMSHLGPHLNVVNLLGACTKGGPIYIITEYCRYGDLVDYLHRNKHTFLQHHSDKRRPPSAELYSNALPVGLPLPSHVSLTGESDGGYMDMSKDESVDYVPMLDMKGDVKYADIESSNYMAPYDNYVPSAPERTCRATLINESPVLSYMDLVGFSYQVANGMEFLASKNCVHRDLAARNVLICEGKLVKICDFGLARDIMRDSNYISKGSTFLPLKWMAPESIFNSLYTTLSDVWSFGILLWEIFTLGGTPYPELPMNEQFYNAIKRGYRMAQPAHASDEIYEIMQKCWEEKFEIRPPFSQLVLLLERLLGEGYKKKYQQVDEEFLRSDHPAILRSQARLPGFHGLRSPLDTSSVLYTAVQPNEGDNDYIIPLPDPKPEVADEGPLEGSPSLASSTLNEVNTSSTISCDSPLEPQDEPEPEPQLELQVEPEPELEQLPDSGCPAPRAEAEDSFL
Angiopoietin-1 receptor (Homo sapiens), sequence (Q02763 whole entry): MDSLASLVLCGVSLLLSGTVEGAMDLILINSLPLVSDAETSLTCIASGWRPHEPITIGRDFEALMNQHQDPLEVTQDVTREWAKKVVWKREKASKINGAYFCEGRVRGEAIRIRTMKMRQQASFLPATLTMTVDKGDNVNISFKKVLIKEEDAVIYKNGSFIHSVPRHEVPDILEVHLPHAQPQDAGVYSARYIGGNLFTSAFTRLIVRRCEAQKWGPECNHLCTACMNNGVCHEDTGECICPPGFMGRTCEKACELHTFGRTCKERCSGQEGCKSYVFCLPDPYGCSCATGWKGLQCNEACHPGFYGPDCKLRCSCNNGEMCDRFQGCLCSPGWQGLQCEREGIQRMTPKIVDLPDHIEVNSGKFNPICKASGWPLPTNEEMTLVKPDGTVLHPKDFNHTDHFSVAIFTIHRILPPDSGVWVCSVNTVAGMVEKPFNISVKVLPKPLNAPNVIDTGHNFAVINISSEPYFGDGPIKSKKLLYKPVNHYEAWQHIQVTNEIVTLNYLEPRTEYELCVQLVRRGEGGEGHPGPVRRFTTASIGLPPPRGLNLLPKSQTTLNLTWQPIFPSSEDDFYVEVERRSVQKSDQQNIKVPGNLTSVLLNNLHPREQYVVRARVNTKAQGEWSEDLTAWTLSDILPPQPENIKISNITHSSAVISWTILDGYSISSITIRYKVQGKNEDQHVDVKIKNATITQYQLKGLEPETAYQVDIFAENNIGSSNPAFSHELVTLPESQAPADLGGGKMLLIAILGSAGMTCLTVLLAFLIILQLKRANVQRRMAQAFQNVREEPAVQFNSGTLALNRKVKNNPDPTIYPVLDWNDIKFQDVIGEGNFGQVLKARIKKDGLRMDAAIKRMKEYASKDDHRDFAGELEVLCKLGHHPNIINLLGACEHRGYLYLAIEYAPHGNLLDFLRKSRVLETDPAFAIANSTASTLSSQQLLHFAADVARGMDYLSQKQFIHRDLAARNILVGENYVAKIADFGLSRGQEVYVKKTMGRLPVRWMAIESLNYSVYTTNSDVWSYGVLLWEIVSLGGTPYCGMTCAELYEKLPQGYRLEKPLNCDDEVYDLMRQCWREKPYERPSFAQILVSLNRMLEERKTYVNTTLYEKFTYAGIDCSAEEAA
Tyrosine-protein kinase Lck (Homo sapiens), sequence (P06239 2-509 limits assumed): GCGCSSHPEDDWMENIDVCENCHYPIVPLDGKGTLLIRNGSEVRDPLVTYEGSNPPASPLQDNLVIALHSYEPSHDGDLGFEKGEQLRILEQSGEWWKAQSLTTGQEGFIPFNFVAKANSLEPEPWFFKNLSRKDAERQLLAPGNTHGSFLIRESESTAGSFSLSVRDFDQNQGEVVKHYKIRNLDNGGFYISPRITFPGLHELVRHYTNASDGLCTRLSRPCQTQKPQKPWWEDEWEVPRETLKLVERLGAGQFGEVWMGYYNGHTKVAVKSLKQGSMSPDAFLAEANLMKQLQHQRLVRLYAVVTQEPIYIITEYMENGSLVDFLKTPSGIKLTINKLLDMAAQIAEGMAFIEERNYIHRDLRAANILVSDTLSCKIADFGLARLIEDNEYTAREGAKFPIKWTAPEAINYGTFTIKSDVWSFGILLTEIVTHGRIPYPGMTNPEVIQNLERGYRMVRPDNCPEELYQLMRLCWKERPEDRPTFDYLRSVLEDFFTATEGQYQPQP
Aurora kinase B (Homo sapiens), sequence (Q96GD4 whole entry): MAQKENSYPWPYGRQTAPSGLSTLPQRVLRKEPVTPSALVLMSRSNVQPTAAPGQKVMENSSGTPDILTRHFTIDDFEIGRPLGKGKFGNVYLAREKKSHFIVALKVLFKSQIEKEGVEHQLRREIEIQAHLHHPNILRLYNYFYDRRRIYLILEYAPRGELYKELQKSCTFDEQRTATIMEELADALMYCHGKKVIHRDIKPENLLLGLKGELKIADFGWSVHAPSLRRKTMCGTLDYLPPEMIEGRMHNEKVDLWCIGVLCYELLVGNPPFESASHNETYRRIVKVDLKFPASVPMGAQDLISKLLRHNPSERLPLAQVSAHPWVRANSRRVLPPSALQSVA

SMILES	IC50 (Aurora kinase A) [nM]	GI50 (HCT-116 [2]) [nM]	other results
Brc1cnc2[nH]c(-c3ccc(CN4CCOCC4)cc3)nc2c1N1CCN(Cc2cscn2)CC1	6	–	–
CN(C)c1ccc(-c2nc3c(N4CCN(S(=O)(=O)c5ccccc5)CC4)c(Br)cnc3[nH]2)cc1	178	–	–
CN(C)c1ccc(-c2nc3c(N4CCN(CC(=O)Nc5ccccc5)CC4)c(Cl)cnc3[nH]2)cc1	115	2550	–
COc1ccc(-c2nc3c(N4CCN(Cc5cccnc5)CC4)c(Br)cnc3[nH]2)cc1	9	1150	–
Cc1cc(CN2CCN(c3c(Cl)cnc4[nH]c(-c5ccc(Cn6cccn6)cc5)nc34)CC2)no1	–	450	–
CC(C)CN1CCN(c2c(Br)cnc3[nH]c(-c4ccc(N(C)C)cc4)nc23)CC1	210	970	–
CN(C)c1ccc(-c2nc3c(N4CCN(c5ccccc5)CC4)c(Br)cnc3[nH]2)cc1	258	–	–
Cc1cc(CN2CCN(c3c(Cl)cnc4nc(-c5ccc(OCCO)cc5)[nH]c34)CC2)no1	20	450	remaining at 0.5 h, 10 µM [1]: > 50%
O=C(CN1CCN(c2c(Br)cnc3[nH]c(-c4ccccc4)nc23)CC1)Nc1nccs1	81	3000	–
CN(C)c1ccc(-c2nc3c(N4CCN(C(=O)Nc5ccccc5)CC4)c(Br)cnc3[nH]2)cc1	277	10000	–
Clc1ccc(CN2CCN(c3c(Br)cnc4[nH]c(-c5ccc(CN6CCOCC6)cc5)nc34)CC2)cc1	–	600	inhibition [4]: 15%; inhibition [5]: 33%; inhibition [6]: 5%; inhibition [7]: 3%; inhibition at 10 µM (hERG (KCNH2)): 53%; inhibition [8]: 35%; inhibition [9]: 60%; inhibition [10]: 98%; inhibition [11]: 4%; inhibition [12]: 8%; inhibition [13]: 35%
CN(C)c1ccc(-c2nc3c(N4CCNCC4)c(Br)cnc3[nH]2)cc1	365	950	–
CN(C)c1ccc(-c2nc3c(N4CCN(CC(=O)Nc5nccs5)CC4)c(C#N)cnc3[nH]2)cc1	50	1030	–
COc1ccc(-c2nc3c(N4CCN(CC5CC5)CC4)c(Br)cnc3[nH]2)cc1	650	830	–
COc1ccc(-c2nc3c(N4CCN(Cc5cc(C)on5)CC4)c(Br)cnc3[nH]2)cc1	17	540	bioavailability [14]: 23%; remaining at 0.5 h, 10 µM [1]: > 50%; inhibition (INH) [15]: Not Active; Papp [16]: 6 ×10⁻⁶ cm/s; solubility [3]: < 10 µg/mL
Cn1ccnc1CN1CCN(c2c(Br)cnc3[nH]c(-c4ccc(CN5CCOCC5)cc4)nc23)CC1	30	1500	–
Cc1cc(CN2CCN(c3c(Cl)cnc4nc(-c5ccc(CN)cc5)[nH]c34)CC2)no1	55	650	remaining at 0.5 h, 10 µM [1]: > 50%
COc1ccc(-c2nc3c(N4CCN(CC(=O)Nc5nccs5)CC4)c(Cl)cnc3[nH]2)cc1	52	900	–
CN(C)c1ccc(-c2nc3c(N4CCN(CC(=O)Nc5cccnc5)CC4)c(Br)cnc3[nH]2)cc1	118	1650	–
O=C(CN1CCN(c2c(Br)cnc3[nH]cnc23)CC1)Nc1nccs1	517	–	inhibition of growth at 10 µM (HCT-116 [17]): 40%
COc1ccc(-c2nc3c(N4CCN(Cc5nccn5C)CC4)c(Br)cnc3[nH]2)cc1	32	1500	–
CN(C)c1ccc(-c2nc3c(N4CCN(CC(=O)Nc5nccs5)CC4)c(Br)cnc3[nH]2)cc1	55	480	–
CN(C)Cc1ccc(-c2nc3c(N4CCN(CC(=O)Nc5nccs5)CC4)c(Br)cnc3[nH]2)cc1	16	1000	–
COc1ccc(-c2nc3ncc(C4CC4)c(N4CCN(CC(=O)Nc5nccs5)CC4)c3[nH]2)cc1	53	2500	–
CC(c1ccccc1)N1CCN(c2c(Cl)cnc3[nH]c(-c4ccc(N(C)C)cc4)nc23)CC1 (stereo not given)	79	900	–
CN(C)c1ccc(-c2nc3c(N4CCN(CC(=O)Nc5cccc(Cl)c5)CC4)c(Cl)cnc3[nH]2)cc1	75	2670	–
CN(C)c1ccc(-c2nc3c(N4CCN(Cc5ccncc5)CC4)c(Br)cnc3[nH]2)cc1	55	700	–
CC(c1ccncc1)N1CCN(c2c(Br)cnc3[nH]c(-c4ccc(N(C)C)cc4)nc23)CC1 (stereo not given)	85	900	–

The next lines start with results.

IC50 (Aurora kinase A) [nM]	GI50 (HCT-116 [2]) [nM]	SMILES	other results
4	320	COc1ccc(-c2nc3c(N4CCN(Cc5cscn5)CC4)c(Br)cnc3[nH]2)cc1	remaining at 0.5 h, 10 µM [1]: 45%
–	120	Cc1cc(CN2CCN(c3c(Br)cnc4[nH]c(-c5ccc(Cn6cccn6)cc5)nc34)CC2)no1	–
6	420	Brc1cnc2[nH]c(-c3ccc(CN4CCOCC4)cc3)nc2c1N1CCN(Cc2cncnc2)CC1	–
10	240	Cc1cc(CN2CCN(c3c(Br)cnc4[nH]c(-c5ccc(CN)cc5)nc34)CC2)no1	remaining at 0.5 h, 10 µM [1]: > 50%
2	60	Cc1cc(CN2CCN(c3c(Br)cnc4[nH]c(-c5ccc(CN6CCOCC6)cc5)nc34)CC2)no1	–
30	280	Cc1cc(CN2CCN(c3c(Br)cnc4[nH]c(-c5ccc(OCCO)cc5)nc34)CC2)no1	remaining at 0.5 h, 10 µM [1]: > 50%; solubility [3]: 10 µg/mL (≈ 19.5 µM)
–	280	Brc1cnc2[nH]c(-c3ccc(CN4CCOCC4)cc3)nc2c1N1CCN(Cc2cccnc2)CC1	bioavailability [14]: 13%; solubility [3]: 30 µg/mL (≈ 54.7 µM)
3	360	O=C(CN1CCN(c2c(Cl)cnc3[nH]c(-c4ccc(CN5CCOCC5)cc4)nc23)CC1)Nc1nccs1	–
8	400	COc1ccc(-c2nc3c(N4CCN(Cc5cncnc5)CC4)c(Br)cnc3[nH]2)cc1	–
–	100	Cc1cc(CN2CCN(c3c(Br)cnc4[nH]c(-c5ccc(N6CCNCC6)cc5)nc34)CC2)no1	remaining at 0.5 h, 10 µM [1]: > 50%
14	230	Cc1cc(CN2CCN(c3c(Br)cnc4nc(-c5ccc(CN(C)C)cc5)[nH]c34)CC2)no1	remaining at 0.5 h, 10 µM [1]: > 50%
10	78	Cc1cc(CN2CCN(c3c(Br)cnc4nc(-c5ccc(CN6CCNCC6)cc5)[nH]c34)CC2)no1	remaining at 0.5 h, 10 µM [1]: > 50%; solubility [3]: 870 µg/mL (≈ 1580 µM)

— ChEMBL document CHEMBL1155446, “Imidazo[4,5-b]pyridine derivatives as inhibitors of Aurora kinases: lead optimization studies toward the identification of an orally bioavailable preclinical development candidate” (J Med Chem, 2010)
